Like-named read-outs stand apart in the source and are kept apart here.
Legend:
[1] = tested on: Hep3B2.1-7 human hepatic carcinoma
Excerpt: The orthotopic xenograft mouse model of Hep3B2.1–7 human hepatic carcinoma was previously established. Tumors were created by injection of 2.5 × 10^6 Hep3B2.1-7 cells (ATCC, RRID:CVCL_0326; Virginia, Manassas, USA) into the main lobe of the liver of anaesthetized female SCID mice (C.B-17-Igh-1bPrkdc(scid)). […] Treatments were continued for 21 days. Treatment of animals was ceased when the body weight dropped below 85% of that on entry of the study. Only mice culled at the termination date were used to determine the tumor weight. The experiment was conducted by vivoPharm pty Ltd (Bundoora, Australia) in accordance with the principles outlined in the “Australian Code of Practice for the Care and Use of Animals for Scientific Purposes”, 7th Edition, 2004 (National Health and Medical Research Council, Canberra, Australia). All procedures involving animals were reviewed and approved by the University of Adelaide Animal Ethics Committee. The study was carried out in compliance with the ARRIVE guidelines (http://www.nc3rs.org.uk/page.asp?id=1357). […]
invasion assay. The ODs of the invaded cells were normalized relative to ODs from tissue […]
Orthotopic xenograft mouse model
The orthotopic xenograft mouse model of Hep3B2.1-7 human hepatic carcinom a was previously established. The experiment was conducted by vivoPharm pty Ltd (Australia) in accordance with the principles outlined in the Australian Code of Practice for the Care and Use of Animals for Scientific Purposes, 7th Edition, 2004 (National Health and Medical Research Council). Procedures involving the care and use of animals in thi s study were reviewed and approved by the University of Adelaide Animal Ethics Committee. The study was carried out in compliance with the ARRIVE guidelines
(http://www.nc3rs.org.uk/page.asp?id=1357).
The animals were delivered to the test facility 1 1 days prior inoculation. On arrival, all animals received a detailed physical examination, including body weight measurement by the […]
technical staff. […] Each a nimal was identified by a transponder (Bar Code Data Systems Pty Ltd, Botany Bay, NSW, Australia) that could be scanned with a barcode reader (DataMars LabMax I). The transponder was implanted by subcutaneous injection between the shoulder blades while the mouse was under isoflurane-induced anaesthesia. The animals were housed in groups of six in micro-isolator cages (two cages per group). Each cage was clearly labelled with a cage card indicating study number, group, gender, and prescribed dose concentration and dose volume. The animals were kept in a controlled environment (targeted ranges: temperature 21 ± 3°C, humidity 30 -70%, 15 air changes per hour), with a light/dark cycle each of 12 hours, and under barrier (quarantine) conditions. Temperature and relative humidity were monitored continuously. All animals were subjected to the same environmental conditions. A standard certified commercial rodent diet (Rat and Mouse Cubes, Specialty Feeds Pty Ltd, Glen Forrest, WA, Australia) and tap water were provided to the animals ad libitum. Food supply was sterilized by autoclaving, and water […]
supply was sterilized by acidification with hydrochloric acid (pH 2.4-2.7) by Laboratory Animal Services, University of Adelaide (Adelaide, SA, Australia). Additional feed (a nimal seed, Magill Grain Store, Magill, SA, Australia), as well as wet standard feed was provided to all animals from Day 7 onwards, as a measure to minimize body w eight loss. The extent of adverse reaction was assessed during the study and mice were culled if severe adverse […]
The age range of the mice were 12-16 weeks at
Hep3B2.1-7 human hepatic carcinoma cells were sourced from the American Type Culture […]
Collection (ATCC; Virginia, USA).

[2] = tested on: PLC/PRF/5 and SNU-475 cells; assay: ELISA for growth factors PDGF-AA, TGF and VEGF; type: cell-based; details: tissue culture supernatants, with or without platelets (Fig. S4B)
Description: A. The growth factors PDGF-AA, TGFβ and VEGF were determined from tissue culture supernatants by ELISA. PLC/PRF/5 and SNU-475 cells were cultured with increasing […]
(1 picture or pasted object on this page, not shown here) […]
amounts of platelets. In parallel, platelets were cultured without cells to determine if the growth factors were platelet derived.
B. ELSIAs for PDGF-AA, TGFβ and VEGF were performed after drug treatment of PC/PRF/5 and SNU-475 cells. Cells were cultured as indicated with or without platelets and treated with resminostat, sorafenib, the drug combination or vehicle control 0.1% DMSO.
Table S1_ EC50 cell line screen
S1D. The cancer cell lines, their tissue origins and the respective EC50 values are shown.
Each cell line was seeded in duplicates.

PLC/PRF/5 = assay: Proliferation assay; type: cell-based; details: for EC50: Homo sapiens
Excerpt: (§1) The cell lines HepG2 (ACC180, RRID:CVCL_0027; DMSZ, Braunschweig Germany), SNU-475 (CRL-2236, Lot. 58483227, RRID:CVCL_0497; ATCC, Manassas, Virginia, US), SNU-387 (CRL-2237, Lot. 58483192, RRID:CVCL_0250; ATCC, Virginia, US), PLC/PRF/5 (300315, Lot. 812, RRID:CVCL_0485; CLS Cell Lines Service GmbH, Eppelheim, Germany) and HuH-7 (JCRB0403, Lot. 2272008, RRID:CVCL_0336; JCRB Cell Bank, Japan) were propagated according to the distributor’s guidelines. The authenticity of the cell lines was confirmed by short tandem repeat (STR) analysis (DSMZ, Braunschweig, Germany). Mycoplasma contamination was ruled out by PCR testing. For assays with platelet lysate (PL), FBS was substituted with 10% PLTMax Human Platelet Lysate (Cat. Nr. SCM141, Lot Number VP1602259; Millipore, Burlington, Massachusetts, US). The PL was supplemented with 20 U/ml Heparin (Heparin sodium salt from porcine intestinal mucosa, H4784-250MG; Sigma-Aldrich, Taufkirchen, Germany) to prevent coagulation.
(§2) Prior to the assay, the optimal seeding density was determined for each cell line to obtain an exponential growth during the experiment (2000 to 6000 cells per 96-well). Drug dilution series with 8 concentrations were prepared for EC50 determinations of single drugs. Three wells for each concentration were seeded (technical replicates). For drug combinations, dilution series of six concentrations for each drug alone or in combination at equal ratio were prepared. After 4 h of cell seeding, the drugs were added to the cells. Each 96-well plate contained a vehicle control (0.1% or 0.2% DMSO), a death control Ro 106-9920 (Tocris Cookson Ltd., Bristol, UK) a growth control (untreated cells compared to vehicle treated cells), and blank wells without cells. The proliferation assay was stopped after 4 days by crystal violet staining of the cells (0.5% in 20% methanol). Following extraction of the crystal violet with 8% acetic acid, the eluates were quantified photometrically at 570 nm and the reference wavelength 690 nm in an absorbance microplate reader (Tecan Sunrise; Tecan, Männedorf, Switzerland). Only readouts from 96-well plates with a Z-factor between 0.5 and 1.0 were used. Blank OD values were subtracted from the mean OD values. Nonlinear curve fitting and EC50 calculation was performed with Excel Solver.

HuH-7 = assay: Proliferation assay; type: cell-based; details: for EC50: Homo sapiens, 96 h, 4 days
Excerpt: as §1, §2

HepG2 = assay: Proliferation assay; type: cell-based; details: for EC50: Homo sapiens, 96 h, 4 days
Excerpt: as §1, §2

SNU-475 = assay: Proliferation assay; type: cell-based; details: for EC50: Homo sapiens, read-out: EC50, anti-proliferative activity of kinase inhibitors
Excerpt: as §1, §2

SNU-387 = assay: Proliferation assay; type: cell-based; details: SNU-387 vs HepG2, PLC/PRF/5, HuH-7 (Fig. 1F)
Excerpt: as §1, §2

[3] = PLC/PRF/5 (Fig. 6B), read-out: EC50, anti-proliferative activity of kinase inhibitors

EC50 (HuH-7; HuH-7, fetal bovine serum, read-out: EC50 in FBS) | EC50 (HuH-7; HuH-7, platelet lysate, absolute EC50, read-out: EC50 in PL, absolute EC50 (*)) | EC50 (HepG2; HepG2, fetal bovine serum, read-out: EC50 in FBS) | EC50 (HepG2; HepG2, platelet lysate, absolute EC50, read-out: EC50 in PL, absolute EC50 (*)) | EC50 compared to the epithelial cell lines (SNU-475; SNU-475 vs HepG2, PLC/PRF/5, HuH-7 (Fig. 1F)) | EC50 compared to the epithelial cell lines (SNU-387) | EC50 (SNU-475; SNU-475 (Fig. 6B)) | Compound | Tumour weight, Mean ([1]; 40 mg/kg oral once daily, 21 days, SCID mice) | tumor weight compared to the vehicle control ([1]; daily resminostat 15 and 40 mg/kg, sorafenib 40 mg/kg, or combination (Fig. 1B)) | growth factors released by platelets or secreted by HCC cells [2] | EC50 (PLC/PRF/5; 96 h, PLC/PRF/5, fetal bovine serum, 4 days, read-out: EC50 in FBS) | EC50 (PLC/PRF/5; 96 h, PLC/PRF/5, platelet lysate, 4 days, absolute EC50, read-out: EC50 in PL, absolute EC50 (*)) | effect of platelet factors on potency and efficacy (PLC/PRF/5; PLC/PRF/5, platelet lysate vs FBS dose-response curves (Fig. 2A)) | maximal inhibition (PLC/PRF/5; PLC/PRF/5, platelet lysate, at 25 µM) | Ratio PL/FBS (PLC/PRF/5; PLC/PRF/5, ratio of PL/FBS EC50s) | Ratio PL/FBS (HuH-7; HuH-7, ratio of PL/FBS EC50s) | Ratio PL/FBS (HepG2; HepG2, ratio of PL/FBS EC50s) | EC50 (PLC/PRF/5; [3]) | EC50, anti-proliferative activity of kinase inhibitors (SNU-475; SNU-475 (Fig. 6B))
4.4 ± 0.9 µM | 14 ± 2.5 µM | 1.8 ± 0.4 µM | 11.5 ± 1.3 µM | about three-fold higher | about three-fold higher |  | CNC(=O)c1cc(Oc2ccc(NC(=O)Nc3ccc(Cl)c(C(F)(F)F)c3)cc2)ccn1 [sorafenib, Sorafenib] | 1.11 g | significantly reduced tumor weight | not consistantly affected | 4.8 ± 0.6 µM | 22.1 ± 2.5 µM | reduced | not reached | 4.6 | 3.2 | 6.4 |  | 
 |  |  |  |  |  | ~5 µM | C[C@@H](Oc1cc(-c2cnn(C3CCNCC3)c2)cnc1N)c1c(Cl)ccc(F)c1Cl [crizotinib, Crizotinib] |  |  |  |  |  |  |  |  |  |  | ~5 µM | 
 |  |  |  |  |  | > 25 µM | COc1cc2nccc(Oc3ccc(NC(=O)NC4CC4)c(Cl)c3)c2cc1C(N)=O [lenvatinib, Lenvatinib] |  |  |  |  |  |  |  |  |  |  | ~17 µM | could not be determined due to a lack of efficacy
